We go through six compounds from ChEMBL document CHEMBL4340561, “Application of the concept of oxime library screening by mass spectrometry (MS) binding assays to pyrrolidine-3-carboxylic acid derivatives as potential inhibitors of γ-aminobutyric acid transporter 1 (GAT1)” (Bioorg Med Chem, 2019).

In test [1] the target is T1, Sodium- and chloride-dependent GABA transporter 1 (Mus musculus, UniProt P31648). In words: Inhibition of mouse GAT1 expressed in HEK293 cells assessed as reduction in [3H]GABA uptake preincubated for 25 mins followed by [3H]GABA addition and measured after 4 mins by liquid scintillation counting method. The test is classed as cell-based.
The subject of test [2] is Sodium- and chloride-dependent GABA transporter 2 (Mus musculus). Description: Inhibition of mouse GAT3 expressed in HEK293 cells assessed as remaining [3H]GABA uptake at 100 uM preincubated for 25 mins followed by [3H]GABA addition and measured after 4 mins by liquid scintillation counting method.
For test [3], the system named is Sodium- and chloride-dependent betaine transporter (Mus musculus). Description: Inhibition of mouse GAT2 expressed in HEK293 cells assessed as remaining [3H]GABA uptake at 100 uM preincubated for 25 mins followed by [3H]GABA addition and measured after 10 mins by liquid scintillation counting method relative to control.
Test [4] has as its target T1, Sodium- and chloride-dependent GABA transporter 1. In words: Inhibition of NO711 binding to mouse GAT1 expressed in HEK293 cell membranes assessed as reduction in NO711 binding at incubated for 4 hrs in presence of NO711 by LC-ESI-MS/MS analysis relative to control.
The target of test [5] is T2, GABA transporter 4 (Mus musculus) (UniProt P31650).
T2 sequence (whole entry): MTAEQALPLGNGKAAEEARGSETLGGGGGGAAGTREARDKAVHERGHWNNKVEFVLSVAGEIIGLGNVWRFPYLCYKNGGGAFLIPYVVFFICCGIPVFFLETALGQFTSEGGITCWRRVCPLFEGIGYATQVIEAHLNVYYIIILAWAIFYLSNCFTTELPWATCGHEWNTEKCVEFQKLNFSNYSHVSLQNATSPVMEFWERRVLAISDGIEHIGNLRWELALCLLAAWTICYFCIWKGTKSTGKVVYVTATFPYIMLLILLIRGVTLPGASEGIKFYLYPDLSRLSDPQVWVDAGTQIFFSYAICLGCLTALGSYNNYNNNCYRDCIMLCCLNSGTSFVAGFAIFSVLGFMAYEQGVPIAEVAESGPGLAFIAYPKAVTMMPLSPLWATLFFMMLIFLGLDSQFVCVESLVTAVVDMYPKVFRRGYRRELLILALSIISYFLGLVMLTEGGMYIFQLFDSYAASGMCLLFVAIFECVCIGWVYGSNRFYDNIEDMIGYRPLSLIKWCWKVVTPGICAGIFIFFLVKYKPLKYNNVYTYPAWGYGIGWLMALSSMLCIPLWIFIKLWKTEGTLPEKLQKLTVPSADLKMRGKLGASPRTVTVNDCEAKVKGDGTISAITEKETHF
Description: Inhibition of mouse GAT4 expressed in HEK293 cells assessed as remaining [3H]GABA uptake at 100 uM preincubated for 25 mins followed by [3H]GABA addition and measured after 4 mins by liquid scintillation counting method. The test is classed as cell-based.

The next test concerns the target T3, GABA transporter 4 (Mus musculus, UniProt P31650).
T3 sequence (P31650 whole entry): T2 sequence (whole entry)
Description: Inhibition of mouse GAT4 expressed in HEK293 cells assessed as reduction in [3H]GABA uptake preincubated for 25 mins followed by [3H]GABA addition and measured after 4 mins by liquid scintillation counting method. The test is classed as cell-based.

Each structure is given as a SMILES string.

For orientation: IC50 means the concentration needed to halve the response being measured. With `O=C(O)CC1CCNC1` (stereo not given), the half-maximal inhibitory concentration (IC50) in test [1] is 4.07 µM.

`O=C(O)C1CCNC1` (stereo not given): the IC50 in test [1] is 67.6 µM.

Broadly, the Ki is the dissociation constant of the complex between target and ligand, obtained from inhibition or displacement. Consider `O=C(O)C1CCN(CCO/N=C/c2ccccc2-c2ccc(F)cc2Cl)C1` (stereo not given), for which the Activity in test [2] came out at 75%; in test [3] it was 52%; in test [5], 66%. The Ki in test [4] is 0.692 µM. Besides, the IC50 in test [1] was 4.79 µM; on GABA transporter 4, not below 100 µM.

With `O=C(O)C1CCN(CCO/N=C/c2ccccc2-c2ccc(Cl)cc2Cl)C1` (stereo not given), the Activity in test [2] amounted to 62%; in test [5] it was 56%. Besides, the inhibition constant Ki in test [4] is 0.389 µM. Further, the IC50 was 2.29 µM in test [1] and not below 100 µM at GABA transporter 4.

On to `COc1cccc(F)c1-c1ccccc1/C=N/OCCN1CCC(C(=O)O)C1` (stereo not given), for which the results for the Activity in test [2], in test [3] and in test [5] were 93%, 86% and 89%, respectively. Besides, the Ki in test [4] was 0.407 µM. In addition, the IC50 in test [1] is 1.91 µM; on GABA transporter 4 it was not below 100 µM.

One may read the Kd as the constant that tells how readily two partners part at equilibrium. Regarding `O=C(O)C1=CCCN(CCON=C(c2ccccc2)c2ccccc2)C1`, in test [4], the Kd was 0.0265 µM.
